Reference: patent US20250084116A1, “MIXTURE OF STEREOISOMERS OF A SULFATED GLYCOLIPID” (NATIONAL RESEARCH COUNCIL OF CANADA, priority 2022, published 2025)
Entries after “also recorded” stand apart in the source; their conditions may differ.

Columns and labels:
[1] = system: C57BL/6NCrl mice; test: Anti-Ova total IgG titres in serum of immunized mice (ELISA); format: in vivo; details: day 28, two immunizations, 1 μg Ova and 1 mg SLA
From the text: (§1) C57BL/6NCrl mice (6-8 weeks) were obtained from Charles River Laboratories (Saint-Constant, QC, Canada). Mice were maintained in individually ventilated cages with five female mice to a cage with easy access to food and water in a specific pathogen-free small animal facility with automatically controlled light/dark cycles, humidity and temperature at the National Research Council of Canada (NRC) in accordance with the guidelines of the Canadian Council on Animal Care. The animal use protocol (2016.08) was approved by the NRC Animal Care Committee. All mice were randomized upon entering the facility and were immunized and had samples collected and tested in a blinded method.
C57BL/6NCrl mice were immunized by i.m. injection (50 μL) into the left tibialis anterior muscle. All mice were immunized twice in a prime/boost regime on day 0 and day 21. […]
Anti-Ova total IgG titers in mouse serum were quantified by ELISA as described previously.^11-12 Briefly, 96-well high-binding ELISA plates (Thermo Fisher Scientific, Waltham, MA, USA) were coated overnight with 10 μg/mL of the Ova protein used for immunization. […] No detectable titers were measured in serum samples from naïve control animals.
(§2) Data were analyzed using GraphPad Prism 9® (GraphPad Software, San Diego, CA, USA). […]

[2] = system: C57BL/6NCrl mice; test: In vivo cytotoxicity assay of Ova-CD8+ T cells; details: for In vivo cytotoxicity of Ova-CD8+ T cells, comparison with AddaVax-Ova (ANOVA, Tukey): 10 μg Ova and 1 mg SLA, target cells injected day 27, read day 28; for Change in cytotoxic killing on reducing SLA dose: 1.0 mg reduced to 0.3 mg SLA; for CD8+ T cell cytotoxicity at lower Ova antigen or SLA adjuvant dose: lower dose (1 μg Ova or 0.3 mg SLA) versus optimal dose
From the text: as §1
(§3) C57BL/6NCrl mice were immunized by i.m. injection (50 μL) into the left tibialis anterior muscle. All mice were immunized twice in a prime/boost regime on day 0 and day 21. Blood samples were taken for sera collection before boost on day 20 as well as on day 28 immediately prior to euthanasia where whole spleens were collected in necropsy.
(§4) SLA archaeosomes were prepared as described previously.^12 Briefly, SLA lipids (SLA-1, SLA-2 or SLA-3) were dissolved in chloroform/methanol and aliquoted to a glass vial; the organic solvent was removed under N2 gas with mild heating to form a thin lipid layer. A vacuum was applied for at least 2 h to ensure total removal of trace solvents. The lipid film was then hydrated with 1.0 mL of Milli-Q water and was shaken for 2 h at 40° C. or until hydration was completed. Archaeosome vesicles were reduced in size using a tabletop ultrasonic water bath (Fisher Scientific FS60H, 130 W and operating frequency of 40 kHz) and high pressure; they were then left to anneal at 4° C. for 12 h in static conditions and finally filter-sterilized through 0.22 μm filter units. The Ova protein solution (type VI, Sigma-Aldrich, Oakville, ON, Canada) was then added to the empty archaeosomes at the desired amount immediately before immunization so that a single dose contained 1 mg or 0.3 mg of SLA and 10 μg or 1 μg of antigen. The commercial adjuvant AddaVax™ (squalene-oil-in-water emulsion, Invivogen, San Diego, CA, USA) was prepared according to manufacturer's recommendations and mixed with 10 μg Ova protein at 1:1, v:v. The TLR4 agonist monophosphoryl Lipid A (MPLA from S. Minnesota R595 VacciGrade, InvivoGen, San Diego, CA, USA) was combined with Alum (Alhydrogel™ “85”, aluminum hydroxide, Brenntag Biosector, Frederikssund, Denmark), 10 μg: 40 μg respectively and 1 μg Ova. All solutions were brought to a physiological pH of 7.4 in phosphate-buffered saline (PBS).
The activity of antigen-specific CD8^+ T cells (CTL) was measured in vivo as previously described.^10 Briefly, donor spleen-cell suspensions from naïve C57BL/6NCrl mice were prepared. Cells were split into two aliquots. One aliquot was incubated at 37° C. with […] SIINFEKL (JPT Peptide Technologies GmbH) in RIO complete medium (RPMI 1640 with 10% heat-inactivated fetal bovine serum, 1% penicillin/streptomycin, 1% glutamine and 55 μM 2-mercaptoethanol) (Thermo Fisher Scientific, Waltham, MA, USA). After 30 min of incubation, the peptide-pulsed aliquot was stained with a high 10× concentration of CFSE (2.5 μM; Thermo Fisher Scientific); the second non-peptide-pulsed aliquot was stained with 1×CFSE ([…]). Two aliquots of cells (10×10^6/each) were mixed 1:1 and injected into previously immunized recipient mice. Mice injected with Ova alone dissolved in PBS served as controls. At ˜20 to 22 h after the donor cell transfer, spleens were removed from recipients, single-cell suspensions prepared, and cells analyzed by flow cytometry on a BD Fortessa flow cytometer (Becton Dickinson, Franklin Lakes, NJ, USA). The in vivo percentage of peptide pulsed targets relative to non-peptide pulsed targets was enumerated according to a previously published equation.^21, 24-25
as §2

[3] = system: C57BL/6NCrl mice; test: Enumeration of IFN-γ secreting Ova-CD8+ T cells in spleen by ELISPOT; format: in vivo; details: for Number of IFN γ-secreting Ova-CD8+ T cells, comparison with AddaVax-Ova (ANOVA, Tukey) / Number of IFN γ-secreting Ova-CD8+ T cells, comparison with MPL/alum-Ova (ANOVA, Tukey): 10 μg Ova and 1 mg SLA; for Change in ability to induce IFN-γ+ Ova-CD8+ T cells on reducing SLA dose: 1.0 mg reduced to 0.3 mg SLA; for Differences between SLA formulations to produce IFN-γ+ Ova-CD8+ T cells: at each dose tested
From the text: as §1, §3, §4
The Enumeration of IFN-γ secreting cells was done by use of an ELISPOT assay as previously described.^12 Briefly, spleen cells (at a final cell density of 4×10^5 cells/well) were added to 96-well ELISPOT plates coated with anti-IFN-γ (Mabtech Inc., Cincinnati, OH, USA), and incubated in the presence of a peptide stimulant (or non-stimulant control) for 20 h at 37° C., 5% CO2. Peptide stimulant consisted of SIINFEKL, an Ovalbumin CD8^+ T cell epitope Ova257-264. Plates were then incubated, washed and developed using AEC substrate (Becton Dickinson, Franklin Lakes, NJ, USA) and counted using an automated ELISPOT plate reader by BIOSYS (Miami, FL, USA).
Data were analyzed using GraphPad Prism 9® (GraphPad Software, San Diego, CA, USA). Antibody titers were log transformed prior to testing and shown as geometric mean titer (GMT) with the lower and upper 95% confidence interval shown in the graph and written in the text. All in vivo generated data were analyzed with the one-way analysis of variance (ANOVA) test followed by post-hoc analysis using Tukey's multiple comparisons test (comparisons among all groups), as indicated in the figure legends. For all analyses, differences were considered to be not significant with p>0.05.

| Compound | Anti-Ova IgG titres, comparison with MPL/alum (one-way ANOVA, Tukey) [1] | In vivo cytotoxicity of Ova-CD8+ T cells, comparison with AddaVax-Ova (ANOVA, Tukey) [2] | Change in cytotoxic killing on reducing SLA dose [2] | CD8+ T cell cytotoxicity at lower Ova antigen or SLA adjuvant dose [2] | Number of IFN γ-secreting Ova-CD8+ T cells, comparison with AddaVax-Ova (ANOVA, Tukey) ([3]; day 28) | Number of IFN γ-secreting Ova-CD8+ T cells, comparison with MPL/alum-Ova (ANOVA, Tukey) ([3]; day 28) | Change in ability to induce IFN-γ+ Ova-CD8+ T cells on reducing SLA dose [3] | Differences between SLA formulations to produce IFN-γ+ Ova-CD8+ T cells [3] | Adjuvant effectiveness relative to SLA-1 (cytotoxic killing) ([2]; FIG. 8) | Adjuvant effectiveness relative to SLA-1 (IFN-γ ELISPOT) ([3]; FIG. 7) | IFN-γ detectable spots ([3]; Ova antigen alone, unadjuvanted, day 28) |
| --- | --- | --- | --- | --- | --- | --- | --- | --- | --- | --- | --- |
| CC(C)CCCC(C)CCCC(C)CCCC(C)CCOC[C@@H](CO[C@@H]1O[C@H](CO)[C@@H](O[C@@H]2O[C@H](COS(=O)(=O)O)[C@H](O)[C@H](O)[C@H]2O)[C@H](O)[C@H]1O)OCCC(C)CCCC(C)CCCC(C)CCCC(C)C (stereo partly drawn) [SLA-1, 6′-sulfate-β-D-Galp-(1,4)-β-D-Glcp-(1,1)-archaeol, reference compound] | SLA-1>MPL/alum-Ova | SLA-1>AddaVax™-Ova | significantly reduces | lower CD8^+ T cell cytotoxicity | SLA-1>AddaVax™-Ova | SLA-1>MPL/alum-Ova | significantly reduces | no statistically significant differences |  |  |  |
| CC(C)CCCC(C)CCCC(C)CCCC(C)CCOCC(CO[C@@H]1OC(CO)C(O[C@@H]2OC(COS(=O)(=O)O)C(O)[C@H](O)C2O)[C@H](O)C1O)OCCC(C)CCCC(C)CCCC(C)CCCC(C)C (mixture of isomers) [SLA-3] | SLA-3>MPL/alum-Ova | SLA-3>AddaVax™-Ova | Lesser reductions | lower CD8^+ T cell cytotoxicity | SLA-3>AddaVax™-Ova | SLA-3>MPL/alum-Ova | Lesser reductions | no statistically significant differences | at least as effective as SLA-1 | at least as effective as SLA-1; also recorded: as effective an adjuvant as semi-synthetically produced SLA |  |
| Ova: Ova protein (type VI, Sigma-Aldrich), model antigen; unadjuvanted control group [reference compound] |  |  |  |  |  |  |  |  |  |  | less than three |
